Experimental findings from US8399417B2, “Food” (Ajinomoto Co., Inc., priority 2007, dated 2013) are described below.

Starred links: 1 amine or outer side, 2 acyl side, 3 side chain; linkers in the order of their positions; H or OH if unused. Non-standard residues stand in square brackets, D forms with d. No end group written: not given here. γGlu = O=C(O)[C@H](CCC(=O)[*:2])N[*:1]; Orn = NCCC[C@H](N)C(=O)O

One experiment addresses T1, human calcium receptor (Homo sapiens, UniProt P41180).
T1 construct: expressed in transfected cells; host or cells: Xenopus laevis oocytes injected with cRNA; the gene was PCR-cloned from human kidney cDNA (Clontech) into pBR322
T1 sequence (P41180 20-1078): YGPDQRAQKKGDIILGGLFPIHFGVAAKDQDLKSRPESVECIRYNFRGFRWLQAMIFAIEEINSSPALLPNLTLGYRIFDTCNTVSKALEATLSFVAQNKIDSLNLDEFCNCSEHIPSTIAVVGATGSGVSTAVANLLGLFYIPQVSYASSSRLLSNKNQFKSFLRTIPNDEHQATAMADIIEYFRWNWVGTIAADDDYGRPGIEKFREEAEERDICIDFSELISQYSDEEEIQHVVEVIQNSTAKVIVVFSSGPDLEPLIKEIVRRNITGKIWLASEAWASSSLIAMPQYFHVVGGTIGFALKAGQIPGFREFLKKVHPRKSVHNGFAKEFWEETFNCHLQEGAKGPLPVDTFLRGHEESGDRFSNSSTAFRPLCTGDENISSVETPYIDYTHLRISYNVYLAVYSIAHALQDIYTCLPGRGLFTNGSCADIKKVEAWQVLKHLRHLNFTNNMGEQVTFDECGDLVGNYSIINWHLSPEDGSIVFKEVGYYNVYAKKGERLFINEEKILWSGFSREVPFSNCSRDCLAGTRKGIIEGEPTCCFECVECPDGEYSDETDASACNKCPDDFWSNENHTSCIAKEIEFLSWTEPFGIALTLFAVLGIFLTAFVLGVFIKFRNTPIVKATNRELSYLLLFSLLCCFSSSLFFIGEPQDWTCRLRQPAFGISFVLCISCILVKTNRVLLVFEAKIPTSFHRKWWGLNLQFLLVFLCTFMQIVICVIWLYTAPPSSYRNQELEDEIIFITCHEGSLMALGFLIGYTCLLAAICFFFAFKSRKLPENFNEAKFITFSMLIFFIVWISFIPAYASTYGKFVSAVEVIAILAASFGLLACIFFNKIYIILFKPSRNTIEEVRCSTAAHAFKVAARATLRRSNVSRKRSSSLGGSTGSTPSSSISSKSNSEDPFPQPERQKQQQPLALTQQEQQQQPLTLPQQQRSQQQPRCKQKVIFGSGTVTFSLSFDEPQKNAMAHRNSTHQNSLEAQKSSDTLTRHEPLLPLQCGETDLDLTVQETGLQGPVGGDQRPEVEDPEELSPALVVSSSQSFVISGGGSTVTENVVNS
As to the kind of experiment: Calcium receptor-activating effect: Ca ion concentration-dependent Cl ionic current in Xenopus laevis oocyte expression system. Type of experiment: cell-based. Conditions: for Activity (lowest concentration at which current was detected): peptide added at 1,000 to 0.1 μM to potential-clamped oocytes, Table 1. The procedure:
For evaluation of the calcium receptor-activating effect, a Ca ion concentration-dependent Cl ionic current measuring method using a Xenopus laevis oocyte expression system was used. If each activator is added to Xenopus laevis oocytes expressing the calcium receptor, intracellular Ca ions increase. Then, the Ca ion concentration-dependent Cl channel opens, and the intracellular current value changes as an ionic current. By measuring the change in the intracellular current value, whether the calcium receptor-activating effect is present or not can be determined.
Specifically, the abdomen of Xenopus laevis was opened, and an egg batch was taken out and then treated with a 1% collagenase solution at 20° C. for 2 hours to obtain individual oocytes. Into the oocytes, 50 nl of 1 μg/μl receptor cRNA or 50 nl of sterilized water per oocyte were injected by using a micro glass capillary, and the oocytes were cultured at 18° C. for 2 to 3 days. For the culture, a solution obtained by adding 2 mM pyruvic acid, 10 U/ml penicillin, and 10 μg/ml streptomycin to the solution in Reference Example 2 was used. After the culture, a test solution was added to the oocytes injected with cRNA or sterilized water. Electrophysiological measurement was performed by using an amplifier Geneclamp 500 (manufactured by Axon) and recording software AxoScope 9.0 (manufactured by Axon). The oocytes were membrane potential-clamped at −70 mV by the double electrode potential clamp method, and the intracellular current via the Ca ion concentration-dependent Cl ion was measured. The maximum value of the intracellular current was defined as the response current value.
The calcium receptor-activating effect of L-amino acids was evaluated by using the method described in Reference Example 6. That is, oocytes injected with cRNA of the calcium receptor or sterilized water were prepared, and membrane potential-clamped at −70 mV by the double electrode potential clamp method. To the potential-clamped oocytes, alanine (10 mM), arginine (10 mM), asparagine (10 mM), aspartic acid (10 mM), cysteine (10 mM), glutamine (10 mM), glutamic acid (10 mM), glycine (10 mM), histidine (10 mM), isoleucine (10 mM), leucine (10 mM), lysine (10 mM), methionine (10 mM), phenylalanine (10 mM), proline (10 mM), serine (10 mM), threonine (10 mM), tryptophan (10 mM), tyrosine (10 mM), valine (10 mM), ornithine (10 mM), taurine (10 mM), or hydroxyproline (10 mM) was added, and Ca ion concentration-dependent Cl response current was measured. […] 25, 2000, 97(9): 4814-9.
The calcium receptor-activating effect of D-cysteine was evaluated by using the method described in Reference Example 6. That is, oocytes injected with cRNA of the calcium receptor or sterilized water were prepared, and membrane potential-clamped at −70 mV by the double electrode potential clamp method. To the potential-clamped oocytes, D-cysteine (10 mM), L-cysteine (10 mM), D-tryptophan (10 mM), or L-tryptophan (10 mM) was added, and Ca ion concentration-dependent Cl response current was measured.
The calcium receptor-activating effect of a peptide was evaluated by using the method described in Reference Example 6. That is, oocytes injected with cRNA of the calcium receptor or sterilized water were prepared, and membrane potential-clamped at −70 mV by the double electrode potential clamp method.
The calcium receptor-activating effects of peptides were evaluated in the same manner as that of Reference Example 10. Each of the peptides shown in Table 1 was added to potential-clamped oocytes at 1,000 μM, 300 μM, 100 μM, 30 μM, 10 μM, 3 μM, 1 μM, 0.3 μM, and 0.1 μM, and Ca ion concentration-dependent Cl response current was measured.

A short description of experiment [1]: Kokumi-imparting activity intensity, quantitative sensory evaluation test. Type of experiment: in vivo, human. Conditions: 0.1 g/dl; for Kokumi intensity, Aftertaste / Kokumi intensity, Initial and middle taste: control 0, glutathione 3 points.
Method: The quantitative sensory evaluation test was performed as follows. […] It should be noted that a sample, which became acidic after the sample had been dissolved, was adjusted with NaOH to pH 6.8 to 7.2 before use. […] The test was performed with n=3 based on the following sensory evaluation scores: control (0 point) and glutathione addition (3 points).
The quantitative sensory evaluation test was performed as follows. […] It should be noted that a sample, which became acidic after the sample had been dissolved, was adjusted with NaOH to pH 6.8 to 7.2 before use. The test was performed with n=5 based on the following sensory evaluation scores: control (0 point) and glutathione addition (3 points).
The quantitative sensory evaluation test was performed as follows. […] It should be noted that a sample, which became acidic after the sample had been dissolved, was adjusted with NaOH to pH 6.8 to 7.2 before use. The test was performed with n=12 based on the following sensory evaluation scores: control (0 point) and glutathione addition (3 points).
[2] abbreviates: sodium glutamate, inosine monophosphate, sodium chloride solution, n=3, Table 3.

For `N[C@H](CS)C(=O)O` [D-cysteine], the “calcium receptor-activating effect (Cl response current)” value (from here on “calcium receptor-activating effect”) at human calcium receptor (D-amino acid 10 mM, FIG. 3) is reported as “definite calcium receptor-activating effect”.

In the case of `N[C@@H](CS)C(=O)O` [cysteine, reference compound], the “calcium receptor-activating effect” value on human calcium receptor (L-amino acid 10 mM, FIG. 2) was “definite calcium receptor-activating effect”. Turning to `N[C@@H](Cc1c[nH]cn1)C(=O)O` [histidine, reference compound], at human calcium receptor (L-amino acid 10 mM, FIG. 2), the “calcium receptor-activating effect” value is on record as “definite calcium receptor-activating effect”. `N[C@@H](Cc1ccccc1)C(=O)O` [phenylalanine, reference compound]: on human calcium receptor (L-amino acid 10 mM, FIG. 2), the “calcium receptor-activating effect” value is reported as “definite calcium receptor-activating effect”. On the same count and under the same terms, next, `N[C@@H](Cc1c[nH]c2ccccc12)C(=O)O` [tryptophan, reference compound]: “definite calcium receptor-activating effect”; `N[C@@H](Cc1ccc(O)cc1)C(=O)O` [tyrosine, reference compound]: “definite calcium receptor-activating effect”. On to `N[C@@H](CCC(=O)N[C@@H](CSN=O)C(=O)NCC(=O)O)C(=O)O` [γ-Glu-Cys(SNO)-Gly], for which the “calcium receptor-activating effect” value at human calcium receptor (peptide 50 μM, FIG. 4) is “definite calcium receptor-activating effect”. For Asp-Gly, the “calcium receptor-activating effect” value on human calcium receptor (peptide 1 mM, FIG. 4) is “definite calcium receptor-activating effect”.

For the compound Cys-Gly, the “calcium receptor-activating effect” value at human calcium receptor (peptide 1 mM, FIG. 4) is “definite calcium receptor-activating effect”. Still for that read-out and setting: next, Cys-Met: “definite calcium receptor-activating effect”. As to Glu-Cys, the “calcium receptor-activating effect” value at human calcium receptor (peptide 50 μM, FIG. 4) is given as “definite calcium receptor-activating effect”. In the case of Gly-Cys, the “calcium receptor-activating effect” value at human calcium receptor (peptide 500 μM, FIG. 4) is recorded as “definite calcium receptor-activating effect”. Turning to Leu-Asp, the “calcium receptor-activating effect” value at human calcium receptor (peptide 1 mM, FIG. 4) is given as “definite calcium receptor-activating effect”.

As to [γGlu]-Ala, the “calcium receptor-activating effect” value at human calcium receptor (peptide 50 μM, FIG. 4) is “definite calcium receptor-activating effect”. Also, in experiment [1] (n=3, Table 3), the “Kokumi intensity, Aftertaste” value worked out at 0.2 points. In addition, the “Kokumi intensity, Initial and middle taste” value in experiment [1] (setting [2]) turned out to be 0.5 points.

In the case of [γGlu]-Cys, at human calcium receptor (peptide 50 μM, FIG. 4), the “calcium receptor-activating effect” value was “definite calcium receptor-activating effect”. In addition, in experiment [1] (n=5, Table 4), the “Kokumi intensity, Aftertaste” value is recorded as 2.0 points; the “Kokumi intensity, Initial and middle taste” value came out at 2.0 points. Consider [γGlu]-Gly, for which the “calcium receptor-activating effect” value on human calcium receptor (peptide 500 μM, FIG. 4) is recorded as “definite calcium receptor-activating effect”. Take [γGlu]-Gly-Gly: at human calcium receptor, the “Activity (lowest concentration at which current was detected)” value (“Activity” for short) was 30 µM. For [γGlu]-Met, the “calcium receptor-activating effect” value at human calcium receptor (peptide 500 μM, FIG. 4) is listed as “definite calcium receptor-activating effect”. In experiment [1] (n=3, Table 3), the Taste profile entry is “Thickness and growth are slightly”; the “Kokumi intensity, Aftertaste” value stood at 0.4 points. Besides, in experiment [1] (setting [2]), the “Kokumi intensity, Initial and middle taste” value is listed as 1.5 points. Consider [γGlu]-Ser-Gly, for which the “Activity” value at human calcium receptor was found to be 30 µM. For the compound [γGlu]-Thr, the “calcium receptor-activating effect” value on human calcium receptor (peptide 50 μM, FIG. 4) is “definite calcium receptor-activating effect”. On to [γGlu]-Val, for which the “calcium receptor-activating effect” value at human calcium receptor (peptide 50 μM, FIG. 4) is “definite calcium receptor-activating effect”. For the same compound, the “Kokumi intensity, Aftertaste” value was determined as 1.0 points in experiment [1] (n=3, Table 3) and 1.0 points in experiment [1] (n=5, Table 4). The “Kokumi intensity, Initial and middle taste” value in experiment [1] (n=5, Table 4) stood at 3.0 points; in experiment [1] (setting [2]), 3.0 points. [γGlu]-Val-Arg: the “Activity” value at human calcium receptor is 1,000 μM. On the same count and under the same terms, next, [γGlu]-Val-Asn: 30 µM; [γGlu]-Val-Cys: 10 µM; [γGlu]-Val-Gln: 10 µM.

With [γGlu]-Val-Glu, the “Activity” value on human calcium receptor is 1,000 μM. [γGlu]-Val-His: the “Activity” value on human calcium receptor came to 100 µM. Consider [γGlu]-Val-Lys, for which the “Activity” value at human calcium receptor was 1,000 μM. In the case of [γGlu]-Val-Met, the “Activity” value at human calcium receptor is on record as 1,000 μM. Take [γGlu]-Val-Phe: the “Activity” value on human calcium receptor was 30 µM.

Consider [γGlu]-Val-Pro, for which the “Activity” value on human calcium receptor stood at 30 µM. With [γGlu]-Val-Ser, on human calcium receptor, the “Activity” value worked out at 30 µM. With [γGlu]-Val-Thr, the “Activity” value at human calcium receptor was 1,000 μM.

For the compound [γGlu]-Val-Val, on human calcium receptor, the “Activity” value is given as 1,000 μM. Still for that read-out and setting: for [γGlu]-Val-[Orn] the value was 100 µM; for [γGlu]-[γGlu]-Val, 1,000 μM; for γ-Glu-Cys(S-Me)-Gly, 3 µM. For γ-Glu-Cys(S-allyl)-Gly, on human calcium receptor, the “Activity” value was determined as 100 µM. Consider γ-Glu-Orn, for which, at human calcium receptor (peptide 500 μM, FIG. 4), the “calcium receptor-activating effect” value is “definite calcium receptor-activating effect”. Regarding γ-Glu-Tau, the “Activity” value on human calcium receptor amounted to 300 µM. On the same count and under the same terms, next, γ-Glu-Val-Asp: 1,000 μM. On the same count and under the same terms, for γ-Glu-t-Leu the value was 100 µM.
